Results on one molecule are retold here after publication PMC11061835, “Elucidating the Mechanism of Metabolism of Cannabichromene by Human Cytochrome P450s” (Journal of Natural Products, 2024).

The test system of series [1] is BV2 microglial cells, stimulated with lipopolysaccharide (LPS). Briefly: IL-6 ELISA in LPS-stimulated BV2 cells. In kind it is cell-based, mouse. Particulars: 0.1, 1.0, 2.5, 5.0 μM, LPS-stimulated. The procedure:
BV2 cells were a gift from Dr. Bob McCusker, University of Illinois. They were cultured and maintained at 37 °C in a humidified atmosphere of 95% air and 5% CO2 in high-glucose Dulbecco’s modified Eagle’s (DMEM) medium (Cat No. 10-013-CV, Corning Life Sciences), supplemented with 5% heat-inactivated fetal bovine serum (FBS), streptomycin (100 μg/mL), and penicillin (100 units/mL). Stocks of all the minor cannabinoids were made in ethanol and stored at −80 °C and diluted as required before cell treatment. A final concentration of ethanol was maintained at 0.1% in the cell culture experiments.
BV-2 cells were plated at a density of 50 000 cells/well in a 24-well plate at 37 °C under controlled conditions. Cells were pretreated with the minor cannabinoids at various concentrations (0.1, 1.0, 2.5, 5.0 μM) for 4 h and then stimulated with LPS for 24 h. The culture medium was removed and saved for the determination of nitric oxide production through Cayman’s Griess assay. IL-6, TNFα, and Arginase 1 production was also determined utilizing collected medium. For the Greiss assay, in a 96-well plate, 100 μL of culture medium was used, and 50 μL of both Greiss reagent-1 and Greiss reagent-2 was added and incubated for 10 min. The absorbance was measured at 540 nm using a plate reader (SpectraMax iD5). The quantification was done using a calibration curve that was generated using the sodium nitrite standard obtained from Cayman Chemicals.
BV-2 cells were pretreated with the minor cannabinoids as described previously for 4 h in serum media (reduced to 5% FBS). Cells were stimulated with LPS (25 ng/mL in growth media) and allowed to incubate for 24 h. The culture medium was collected, and the concentrations of IL-6 (Cayman Chemicals), TNFα (ThermoFisher Scientific), and arginase 1 (ThermoFisher Scientific) cytokine expression were determined using specific monoclonal antibodies by ELISA kits as per manufacturer’s instructions.

The target in series [2] is T1, CYP2D6 in the presence of CPR (Homo sapiens, UniProt P10635).
T1 construct: His-tag; made in house; host or cells: E. coli DH-5α with pTGro7 plasmid (CYP)
T1 sequence (P10635 whole entry): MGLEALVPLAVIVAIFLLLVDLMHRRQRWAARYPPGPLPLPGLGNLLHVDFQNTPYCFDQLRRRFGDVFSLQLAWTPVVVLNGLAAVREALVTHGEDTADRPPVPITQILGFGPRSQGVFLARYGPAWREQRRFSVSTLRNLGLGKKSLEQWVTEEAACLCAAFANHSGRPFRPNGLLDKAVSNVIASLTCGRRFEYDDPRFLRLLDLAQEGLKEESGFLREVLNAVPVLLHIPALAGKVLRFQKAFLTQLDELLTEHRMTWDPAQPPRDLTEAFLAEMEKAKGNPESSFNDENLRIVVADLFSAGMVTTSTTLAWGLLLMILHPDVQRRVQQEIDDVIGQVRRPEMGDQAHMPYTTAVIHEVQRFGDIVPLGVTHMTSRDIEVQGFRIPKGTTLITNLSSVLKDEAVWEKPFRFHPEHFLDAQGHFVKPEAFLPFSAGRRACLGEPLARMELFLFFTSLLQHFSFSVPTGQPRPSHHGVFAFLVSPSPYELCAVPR
T1 sequence (P16435 whole entry partner): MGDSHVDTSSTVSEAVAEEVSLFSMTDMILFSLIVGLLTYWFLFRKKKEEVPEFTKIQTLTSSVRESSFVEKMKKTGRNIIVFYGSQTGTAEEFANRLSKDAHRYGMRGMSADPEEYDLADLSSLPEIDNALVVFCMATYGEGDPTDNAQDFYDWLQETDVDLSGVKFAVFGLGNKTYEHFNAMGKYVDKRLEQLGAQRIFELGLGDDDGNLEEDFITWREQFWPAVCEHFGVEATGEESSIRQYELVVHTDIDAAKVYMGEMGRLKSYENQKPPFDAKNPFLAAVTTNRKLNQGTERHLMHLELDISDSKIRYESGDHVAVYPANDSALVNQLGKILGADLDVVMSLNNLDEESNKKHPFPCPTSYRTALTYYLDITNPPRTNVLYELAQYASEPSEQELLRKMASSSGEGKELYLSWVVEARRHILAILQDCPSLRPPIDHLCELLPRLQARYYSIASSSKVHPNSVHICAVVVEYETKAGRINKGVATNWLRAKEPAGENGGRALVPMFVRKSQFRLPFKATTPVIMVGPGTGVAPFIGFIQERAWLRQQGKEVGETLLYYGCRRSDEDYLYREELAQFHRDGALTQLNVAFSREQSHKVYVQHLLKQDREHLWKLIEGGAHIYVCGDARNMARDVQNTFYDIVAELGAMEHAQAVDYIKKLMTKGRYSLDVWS
The series can be described thus: Spectroscopic titration, CYP2D6–CPR complex. In kind it is binding. As to the method: For CBC titration to CYP–CPR complex, initially CYPs were dissolved in 400 μL of 0.1 M phosphate buffer (pH = 7.4) keeping the concentration between […]. Following this 50 μL of CPR (50 μM stock) was added to both cuvettes, and the final concentration of both of the proteins was 5–6 μM. Both proteins were initially mixed and incubated for 5 min followed by titration with CBC in the same process as mentioned above. The substrate-bound spectra were then subtracted from substrate-free spectra, and the extent of binding was analyzed using Origin Pro 2020.

The target of series [3] is CYP2D6 (Homo sapiens, UniProt P10635). Briefly: Spectroscopic titration (Soret shift), CYP2D6. In kind it is binding. Also noted: His-tag; made in house; host or cells: E. coli DH-5α with pTGro7 plasmid. Particulars: CYP2D6, absence of CPR. As to the method:
CBC binding to various CYPs was determined by analyzing the Soret shift from ∼417 to ∼390 nm. CBC (stock 10 mM) was dissolved in ethanol and titrated with different CYPs at room temperature. Buffer-exchanged CYP2J2, CYP2D6, CYP3A4, and CYP2C8 (concentrations of proteins were kept between 4 and 5 μM) were dissolved in 0.1 M phosphate buffer (pH = 7.4), and initial spectra were recorded from 200 to 800 nm with a prominent peak at 417 nm. The concentration of CBC was varied from 0 to 100 μM keeping the final concentration of substrate in EtOH not more than 1% in cuvette. 0–4 μL of stock CBC was added using a Hamilton syringe in both the sample and blank cuvettes. The mixture was incubated for 5 min at 37 °C, and absorbance spectra were recorded using a Cary Bio 300 UV–vis spectrophotometer (Agilent Technologies, Santa Clara, CA). To eliminate the background absorbance, we derived the final spectra by […].

Several values for one entry are separate records, joined by “and”; a condition that tells them apart may be missing. Identical values can stand only once.

CYP2D6, sequence (P10635 whole entry): as the sequence (P10635 whole entry) above

As for `CCCCCc1cc(O)c2c(c1)OC(C)(CCC=C(C)C)C=C2` (centres unmarked) [CBC, Cannabichromene], the “effect on IL-6 levels” value in series [1] is reported as “Concentration dependent reduction”. Moreover, the “ΔAmax (spin state change due to heme perturbation)” value in series [2] was 0.04 ± 0.00 and 0.03–0.04; in series [3] it was 0.09 ± 0.01 and ~0.09. Besides, the Kd is 3.12 µM and < 10 µM and ~3 µM in series [2] (read-out: Kd(app)); 11.4 µM and ~11 µM in series [3] (read-out: Kd(app)).
